Here are results for one substance from patent US20180369230A1, “TARGETED SELECTION OF PATIENTS FOR TREATMENT WITH SPECIFIC CORTISTATIN DERIVATIVES” (President and Fellows of Harvard College, priority 2015, published 2018).

As a reminder, the GI50 is the concentration giving 50% growth inhibition. A low value points to more potent growth inhibition.

The test system of one assay is MOLM-14 cells. As to the kind of experiment: Screening drug resistant alleles. In kind it is cell-based. To be noted: WT and mutated CDK8 and CDK19. The method, then:
All suspension cells were plated (96-well) in triplicate at 5,000-30,000 cells per well for testing (n=3). Viable cell number was estimated after 3, 7 and 10 days by counting viable cells from one vehicle well, generating a cell dilution series, transferring […] per well in duplicate to a 384-well plate, and performing a linear regression to CellTiter-Glo (Promega) response (SPECTRAmax M3, Molecular Devices). Cells from all wells were also fourfold diluted in media and transferred in duplicate for CellTiter-Glo measurement. On days 3 and 7, an equal volume for all wells was split-back with fresh media and compound, such that the resulting cell density for the vehicle well matched the initial seeding density. For days 7 and 10, estimated cell number represents the split-adjusted theoretical cell number. HCT116 were plated (96-well) in triplicate at 250 cells per well. Cells were incubated in the presence of vehicle, 1 μM paclitaxel, or compound. On day 7, CellTiter-Blue (Promega) response was measured and values were normalized to vehicle (100% growth) and paclitaxel (0% growth). For growth assays with inhibitors, n=3 for each concentration with two independent experiments. […]

A further assay concerns ME-1. As to the kind of experiment: Cellular proliferation assay. It counts as cell-based. To be noted: ME-1 (CBFB-MYH11); 10-day treatment; read-out: G150 after 10 days of treatment. The method, then:
(§1) All suspension cells were plated (96-well) in triplicate at 5,000-30,000 cells per well for testing (n=3). Viable cell number was estimated after 3, 7 and 10 days by counting viable cells from one vehicle well, generating a cell dilution series, transferring […] per well in duplicate to a 384-well plate, and performing a linear regression to CellTiter-Glo (Promega) response (SPECTRAmax M3, Molecular Devices). Cells from all wells were also fourfold diluted in media and transferred in duplicate for CellTiter-Glo measurement. On days 3 and 7, an equal volume for all wells was split-back with fresh media and compound, such that the resulting cell density for the vehicle well matched the initial seeding density. For days 7 and 10, estimated cell number represents the split-adjusted theoretical cell number. HCT116 were plated (96-well) in triplicate at 250 cells per well. Cells were incubated in the presence of vehicle, 1 μM paclitaxel, or compound. On day 7, CellTiter-Blue (Promega) response was measured and values were normalized to vehicle (100% growth) and paclitaxel (0% growth). For growth assays with inhibitors, n=3 for each concentration with two independent experiments.

The next assay concerns RS4; 11. In words: Cellular proliferation assay. It counts as cell-based. As to conditions: B-ALL, MLL-AF4. The method, then:
as §1

The test system of a further assay is MOLM-16. In words: Cellular proliferation assay. In kind it is cell-based. To be noted: AMkL < 1. The method, then: as §1
The next assay deals with TF-1. In words: Cellular proliferation assay. It counts as cell-based. How it is done: as §1
For the next assay, the system named is SKNO-1. As to the kind of experiment: Cellular proliferation assay. It counts as cell-based. How it is done: as §1
A further assay concerns HL-60. In words: Cellular proliferation assay. It counts as cell-based. As to conditions: AML/APL. How it is done: as §1
The next assay concerns K562. As to the kind of experiment: Cellular proliferation assay. In kind it is cell-based. The method, then:
as §1

The next assay has as its system Kasumi-1. In words: Cellular proliferation assay. In kind it is cell-based. To be noted: AML, RUNX1-RUNX1T1. How it is done: as §1
For the next assay, the system named is JeKo-1. In words: Cellular proliferation assay. In kind it is cell-based. To be noted: Mantle Cell Lymphoma. The method, then: as §1
Another assay deals with SET-2 cells. In words: Gene expression, gene set enrichment analysis (GSEA). It counts as cell-based, human. As to conditions: SET-2, 4 h 25 nM. How it is done: Leukemia cells were plated (12-well) in triplicate at 500,000-800,000 cells per ml and incubated in the presence of vehicle (0.1% DMSO) or CA (25 nM 3 h for K562, MOLM-14 and MV4;11; 10 nM 24 h for MOLM-14; 25 nM 4 h for SET-2, n=3 for each cell line). Cells were then washed twice with cold PBS, and snap frozen. RNA was isolated (RNeasy Plus Microkit, Qiagen or TRIzol, Life Technologies), processed, and, for K562, MOLM-14 and MV4;11, hybridized to the Human U133 Plus 2.0 microarray (Affymetrix). Microarrays were processed with Bioconductor packages affyQCReport for quality control and affy for background correction, summarization, and normalization using rma. Probe sets present in at least 1 sample (based on affy mas5call) and for which the interquartile range was >log2(1.2) were retained for further analysis. The limma Bioconductor package was used for differential expression analysis of CA-treated versus DMSO control samples (Benjamini-Hochberg adjusted P<0.05). SET-2 and HCT 116 gene expression was measured by RNA-seq. SET-2 RNA-seq libraries were prepared and processed using the Ion Torrent workflow. Reads were aligned in two passes, first with rnaStar (v.2.3.0e) then with BWA (v.0.7.5a) for remaining unmapped reads, both using default parameters. Mapped reads were merged and counted using HTSeq (v.0.5.3p3) with -s yes -m intersection-strict. The Bioconductor package DESeq was used for DE analysis (FDR<0.05 and twofold change) and normalization. HCT116 cells were grown to approximately 80% confluence and were treated with either 100 nM CA or DMSO for 3 h (n=3). Cells were then washed twice with cold PBS and scraped into TRIzol reagent (Life Technologies). After collecting the RNA, it was further purified using an RNeasy mini kit (Qiagen) with an on-column DNase I digestion. Libraries for Illumina sequencing were generated via the Illumina TruSEQ stranded mRNA prep kit. Samples were run in a single lane on an Illumina HiSEQ 2000 sequencer with a single read flow cell using 1×50-bp reads and a 6-cycle index read. Reads were mapped to the hg19 reference genome using Tophat2 v.2.0.6 with custom settings including the setting of -library-type fr- firstrand to appropriately account for the stranded nature of the protocol. HTSeq v.0.6.1 was used to obtain read counts over annotated genes and differentially expressed genes were called by DESeq v.1.10.1 with a padj value of less than 0.01. Counts were normalized for GSEA using the limma voom function. Expression data for the I-BET151 comparison were downloaded from ArrayExpress (https://www.ebi.ac.uk/arrayexpress, accession E-MTAB-774) and processed files used as is. Gene lists were submitted to the DAVID web server (http://david.abcc.ncifcrf.gov) for functional annotation. GSEA version 2.09 was carried out using signal-to-noise on natural values as the metric. Signatures included curated gene sets (C2, v.3) downloaded from the Broad's MSigDB as well as signatures curated from in-house and published data sets.
The curated gene sets were analyzed together with over 4,000 signatures including the Broad Molecular Signatures database (C2).

Regarding Cortistatin A, the “growth of cells expressing CDK8 W105M or CDK19 W105M” value with MOLM-14 cells is “confers Cortistatin A resistance”. The IC50 in the assay on ME-1 is 1 nM; with TF-1 (TF-1 (EpoR), erythroleukemia, 10-day treatment, read-out: G150 after 10 days of treatment), 350 nM; with SKNO-1 (SKNO-1 (RUNX1-RUNX1T1), 10-day treatment, read-out: G150 after 10 days of treatment) it was 1 nM; in the assay with K562 (K562 (BCR-Abl), erythroleukemia, 10-day treatment, read-out: G150 after 10 days of treatment), over 1000 nM. The GI50 in the assay with RS4; 11 was 3 nM; with MOLM-16, under 1 nM; with TF-1 (TF-1, AML/Erythroleukemia, EpoR), 350 nM; in the assay with SKNO-1 (SKNO-1, RUNX1-RUNX1T1), 1 nM; in the assay on HL-60, 7 nM; with K562 (K562, CML/Erythroleukemia, BCR-ABL), over 1000 nM. In addition, the GI50 in the assay with Kasumi-1 is 95 nM; in the assay on JeKo-1, under 1 nM. In addition, the results for the NES in the assay on SET-2 cells (signature: GATA1/GATA2/RUNX1/FLI1/SCL Binding Sites in Mks) and in the assay on SET-2 cells (signature: GATA1/SCL Binding sites in Mks) were 2.03 and 2.27, respectively.
